Reference: patent publication US4376771A, “6-(p-Acylaminophenyl)-4,5-dihydropyridaz-3-ones and therapeutic agents containing said compounds” (BASF Aktiengesellschaft, priority 1977, dated 1983)
Converted amounts (≈) assume the structure as drawn. Where two headings read alike, the source gives them in different places.

Legend:
[1] = Toxicity (LD 50), mice, intraperitoneal administration; format: in vivo; conditions: mouse, in vivo, ip; mice, intraperitoneal administration
Excerpt: (§1) ^(3) Mice. Intraperitoneal administration.

human thrombocytes = experiment: Inhibition of the collagen-induced aggregation of human thrombocytes in vitro; format: cell-based; conditions: for EC50: 10 min, read-out: Inhibition of thrombocyte aggregation EC 50%; for Inhibition of thrombocyte aggregation R.E. (relative effectiveness): acetylsalicylic acid = 1.00
Procedure: 1. Inhibition of the collagen-induced aggregation of human thrombocytes in vitro.
Thrombocyte-rich plasma is obtained by centrifuging venous citrate blood (300 g, 10 minutes duration at 4° C.). The photometric measurement of the thrombocyte aggregation is carried out with addition of MgCl2 (final concentration 10 millimoles/l) and of collagen Stago (final concentration 0.02 mg/ml) in a Born Mk 3 aggregometer. The maximum extinction change/sec is used as a measure of the aggregation.
The aggregation-inhibiting activity of the substances is tested after an incubation time of 10 minutes.
(§2) The effective doses or effective concentrations were calculated from the linear relationships between the logarithm of the dose or concentration and the logarithm of the effect, by means of regression analysis.
(§3) Acetylsalicyclic acid was used as the reference substance for the inhibition of thrombocyte aggregation and dihydralazine was used as the reference substance for the anti-hypertensive effect.

rat thrombocytes = experiment: Inhibition of the collagen-induced aggregation of rat thrombocytes ex vivo; format: in vivo, male Sprague-Dawley rats; conditions: for ED33: Rattus norvegicus, read-out: Inhibition of thrombocyte aggregation ED 33%; for Inhibition of thrombocyte aggregation R.E. (relative effectiveness): acetylsalicylic acid 1.0
Procedure: 2. Inhibition of the collagen-induced aggregation of rat thrombocytes ex vivo.
The substances are administered orally to groups of 10-15 male Sprague-Dawley rats weighing 200-250 g. 2-4 hours after administration, blood is taken under ether narcosis and thrombocyte-rich plasma is obtained by centrifuging. The aggregation after addition of collagen is measured as indicated above.
as §2, §3

[2] = system: spontaneously hypertonic rats; experiment: Anti-hypertensive effect on spontaneously hypertonic rats; format: in vivo, male spontaneously hypertonic Okamoto rats; conditions: for ED20: Rattus norvegicus, 2 hours, dose which lowers the blood pressure by 20% compared to the control group, read-out: Anti-hypertensive effect ED 20%; for ED20 / Anti-hypertensive effect R.E. (relative effectiveness): spontaneously hypertonic rats, oral; for Anti-hypertensive effect R.E. (relative effectiveness): dihydralazine 1.0
Procedure: 4. Anti-hypertensive effect on spontaneously hypertonic rats.
The substances are administered orally to groups of 4-8 male spontaneously hypertonic Okamoto rats weighing 270-340 g.
Before, and 2 hours after, the administration, the systolic blood pressure is measured non-surgically by means of piezo-electric crystal sensors.
The ED 20% is determined as the dose which lowers the systolic pressure by 20%, taking into account the values found with untreated control animals.
as §2, §3

narcotized rats = experiment: Anti-hypertensive effect on narcotized rats; format: in vivo, male Sprague-Dawley rats; conditions: for ED20: Rattus norvegicus, ip, dose at which the blood pressure falls by 20%, read-out: Lowering of blood pressure ED 20%; for ED20 / Lowering of blood pressure R.E. (relative effectiveness): rats, urethane narcosis, intraperitoneal; for Lowering of blood pressure R.E. (relative effectiveness): dihydralazine = 1.00; for anti-hypertensive effect (in words): Table 1; for anti-hypertensive power relative to dihydralazine: times more powerful than dihydralazine
Procedure: 3. Anti-hypertensive effect on narcotized rats.
To test the anti-hypertensive effect, the substances are administered intraperitoneally to groups of 3-5 male Sprague-Dawley rats weighing 240-280 g, under urethane narcosis ([…] given intraperitoneally). The measurement of the blood pressure in the carotid artery is carried out by means of Statham transducers. The ED 20% is determined as the dose which lowers the mean carotid blood pressure by 20%.
as §2, §3

Mice = experiment: Toxicity (LD 50), mice, intraperitoneal administration; format: in vivo; conditions: compared with acetylsalicylic acid and dihydralazine; Table 2
Excerpt: as §1

[3] = human thrombocytes, in vitro, collagen 0.02 mg/ml, 10 minutes incubation, concentration which inhibits collagen-induced aggregation by 50%

Which results are given for `CC(=O)Oc1ccccc1C(=O)O` [Acetylsalicylic acid, acetylsalicylic acid, reference compound]?
LD50 [1]: 167 mg/kg; EC50 (human thrombocytes; Homo sapiens): 494 µg/mL (≈ 2740 µM); ED33 (rat thrombocytes; po): 134 mg/kg; Inhibition of thrombocyte aggregation R.E. (relative effectiveness) (rat thrombocytes; rats, oral, ex vivo): 1.0

With `NNc1nnc(NN)c2ccccc12` [Dihydralazine, dihydralazine, reference compound] as the molecule, how does the ED20 [2] read?
Its ED20 is 6.85 mg/kg.

What about the “Anti-hypertensive effect R.E. (relative effectiveness)” value [2] of the same molecule?
Its value is 1.0.

What about the LD50 [1] of the same molecule?
Its LD50 is 106 mg/kg.

And the ED20 (narcotized rats)?
Its ED20 is 0.34 mg/kg.

And the “Lowering of blood pressure R.E. (relative effectiveness)” value (shortened to “Lowering … (relative effectiveness)”) (narcotized rats)?
Its value is 1.00.

What about the EC50 (human thrombocytes; [3]) of the same molecule?
Its EC50 is 149 µg/mL (≈ 783 µM).

What about the “Inhibition of thrombocyte aggregation R.E. (relative effectiveness)” value (shortened to “Inhibition … (relative effectiveness)”) (human thrombocytes; human thrombocytes, in vitro) of the same molecule?
The value was 3.32.

With `O=C1CCC(c2ccc(NC(=O)CCl)cc2)=NN1` [Example 1, 6-(p-chloroacetylaminophenyl)-4,5-dihydropyridaz-3-one] as the molecule, how does the ED20 (narcotized rats) read?
Its ED20 is 0.37 mg/kg.

What about the “anti-hypertensive effect (in words)” value (narcotized rats) of the same molecule?
Its value is “about as active as dihydralazine”.

What about the “Lowering … (relative effectiveness)” value (narcotized rats) of the same molecule?
Its value is 0.92.

And the EC50 (human thrombocytes; [3])?
The EC50 was 0.25 µg/mL (≈ 0.941 µM).

And the “Inhibition … (relative effectiveness)” value (human thrombocytes; human thrombocytes, in vitro)?
The value was 1,980.

Which results are given for `CC1CC(=O)NN=C1c1ccc(NC(=O)CCl)cc1` (stereo not shown) [Example 3, 6-(p-chloroacetylaminophenyl)-5-methyl-4,-dihydropyridaz-3-one]?
ED20 (narcotized rats): 0.15 mg/kg; anti-hypertensive effect (in words) (narcotized rats): about as active as dihydralazine; Lowering of blood pressure R.E. (relative effectiveness) (narcotized rats): 2.27; EC50 (human thrombocytes; [3]): 0.11 µg/mL (≈ 0.393 µM); Inhibition of thrombocyte aggregation R.E. (relative effectiveness) (human thrombocytes; human thrombocytes, in vitro): 4,490

For `CC(Cl)C(=O)Nc1ccc(C2=NNC(=O)CC2)cc1` (stereo not shown) [Example 4, 6-[p-(2-chloropropionylamino)-phenyl]-4,5-dihydropyridaz-3-one], which ED20 (narcotized rats) is on record?
The ED20 was 0.53 mg/kg.

What about the “anti-hypertensive effect (in words)” value (narcotized rats) of the same molecule?
The value was “about as active as dihydralazine”.

What about the “Lowering … (relative effectiveness)” value (narcotized rats) of the same molecule?
The value was 0.64.

What about the EC50 (human thrombocytes; [3]) of the same molecule?
The EC50 was 0.27 µg/mL (≈ 0.965 µM).

What about the “Inhibition … (relative effectiveness)” value (human thrombocytes; human thrombocytes, in vitro) of the same molecule?
Its value is 1,830.

With `CC(Cl)C(=O)Nc1ccc(C2=NNC(=O)CC2C)cc1` (stereo not shown) [Example 5, 6-[p-(2-chloropropionylamino)-phenyl]-5-methyl-4,5-dihydropyridaz-3-one] as the molecule, how does the ED20 [2] read?
Its ED20 is 1.16 mg/kg.

And the “lowering of blood pressure” value ([2]; spontaneously hypertensive rats, oral dose of 1.2 mg/kg)?
The value was “about 20%”.

And the “Anti-hypertensive effect R.E. (relative effectiveness)” value [2]?
Its value is 5.9.

What about the “acute toxicity (in words)” value (Mice) of the same molecule?
The value was “somewhat less than that of acetylsalicyclic acid and dihydralazine”.

What about the LD50 [1] of the same molecule?
Its LD50 is 231 mg/kg.

What about the ED20 (narcotized rats) of the same molecule?
The ED20 was 0.0079 mg/kg.

And the “Lowering … (relative effectiveness)” value (narcotized rats)?
Its value is 43.04.

And the “anti-hypertensive power relative to dihydralazine” value (narcotized rats)?
The value was 43 times.

What about the EC50 (human thrombocytes; [3]) of the same molecule?
The EC50 was 0.031 µg/mL (≈ 0.106 µM).

What about the “Inhibition … (relative effectiveness)” value (human thrombocytes; human thrombocytes, in vitro) of the same molecule?
The value was 15,900.

And the ED33 (rat thrombocytes; rats, oral, ex vivo, Example 5 given 2 hours, acetylsalicylic acid 4 hours before measuring, dose which inhibits collagen-induced aggregation by 33%)?
Its ED33 is 0.82 mg/kg.

And the “inhibition of thrombocyte aggregation after oral administration (in words)” value (rat thrombocytes; oral, Table 2)?
Its value is “very strong inhibition of thrombocyte aggregation”.

What about the “Inhibition … (relative effectiveness)” value (rat thrombocytes; rats, oral, ex vivo) of the same molecule?
Its value is 163.

Which results are given for `O=C1CCC(c2ccc(NC(=O)CCCl)cc2)=NN1` [Example 6, 6-[p-(3-chloropropionylamino)-phenyl]-4,5-dihydropyridaz-3-one]?
ED20 (narcotized rats): 10 mg/kg; anti-hypertensive effect (in words) (narcotized rats): slight; Lowering of blood pressure R.E. (relative effectiveness) (narcotized rats): 0.03; EC50 (human thrombocytes; [3]): 0.35 µg/mL (≈ 1.25 µM); inhibition of thrombocyte aggregation (in words) (human thrombocytes; human thrombocytes, collagen-induced, Table 1): highly specific thrombocyte aggregation-inhibiting effect; Inhibition of thrombocyte aggregation R.E. (relative effectiveness) (human thrombocytes; human thrombocytes, in vitro): 1,410

For `CC1CC(=O)NN=C1c1ccc(NC(=O)CCCl)cc1` (stereo not shown) [Example 7, 6-[p-(3-chloropropionylamino)-phenyl]-5-methyl-4,5-dihydropyridaz-3-one], which ED20 (narcotized rats) is on record?
The ED20 was 0.045 mg/kg.

And the “Lowering … (relative effectiveness)” value (narcotized rats)?
Its value is 7.56.

What about the “anti-hypertensive power relative to dihydralazine” value (narcotized rats) of the same molecule?
The value was 7.6 times.

And the EC50 (human thrombocytes; [3])?
The EC50 was 0.3 µg/mL (≈ 1.02 µM).

And the “Inhibition … (relative effectiveness)” value (human thrombocytes; human thrombocytes, in vitro)?
Its value is 1,650.

What does the source list for `CC1CC(=O)NN=C1c1ccc(NC(=O)CCCCl)cc1` (stereo not shown) [Example 8, 6-[p-(4-chlorobutyrylamino)-phenyl]-5-methyl-4,5-dihydropyridaz-3-one]?
ED20 (narcotized rats): 0.32 mg/kg; anti-hypertensive effect (in words) (narcotized rats): about as active as dihydralazine; Lowering of blood pressure R.E. (relative effectiveness) (narcotized rats): 1.06; EC50 (human thrombocytes; [3]): 1.7 µg/mL (≈ 5.52 µM); Inhibition of thrombocyte aggregation R.E. (relative effectiveness) (human thrombocytes; human thrombocytes, in vitro): 291

With `CCC(Br)C(=O)Nc1ccc(C2=NNC(=O)CC2C)cc1` (stereo not shown) [Example 9] as the molecule, how does the ED20 (narcotized rats) read?
Its ED20 is 1.49 mg/kg.

And the “anti-hypertensive effect (in words)” value (narcotized rats)?
The value was “slight”.

And the “Lowering … (relative effectiveness)” value (narcotized rats)?
Its value is 0.23.

And the EC50 (human thrombocytes; [3])?
The EC50 was 0.27 µg/mL (≈ 0.767 µM).

What about the “Inhibition … (relative effectiveness)” value (human thrombocytes; human thrombocytes, in vitro) of the same molecule?
The value was 1,830.

Which ED20 (narcotized rats) does the source give for `CC1CC(=O)NN=C1c1ccc(NC(=O)C(C)(C)CCl)cc1` (stereo not shown) [Example 11] here?
The ED20 was 0.61 mg/kg.

And the “Lowering … (relative effectiveness)” value (narcotized rats)?
Its value is 0.56.

What about the EC50 (human thrombocytes; [3]) of the same molecule?
Its EC50 is 0.47 µg/mL (≈ 1.46 µM).

And the “Inhibition … (relative effectiveness)” value (human thrombocytes; human thrombocytes, in vitro)?
Its value is 1,050.

For `CC1CC(=O)NN=C1c1ccc(NC(=O)C(C)(C)CBr)cc1` (stereo not shown) [Example 12], which ED20 (narcotized rats) is on record?
Its ED20 is 0.34 mg/kg.

And the “anti-hypertensive effect (in words)” value (narcotized rats)?
The value was “about as active as dihydralazine”.

And the “Lowering … (relative effectiveness)” value (narcotized rats)?
Its value is 1.00.

And the EC50 (human thrombocytes; [3])?
The EC50 was 0.44 µg/mL (≈ 1.2 µM).

What about the “Inhibition … (relative effectiveness)” value (human thrombocytes; human thrombocytes, in vitro) of the same molecule?
The value was 1,120.

With `CC(Br)C(=O)Nc1ccc(C2=NNC(=O)CC2C)cc1` (stereo not shown) [Example 16] as the molecule, how does the ED20 (narcotized rats) read?
Its ED20 is 0.4 mg/kg.

What about the “anti-hypertensive effect (in words)” value (narcotized rats) of the same molecule?
Its value is “about as active as dihydralazine”.

And the “Lowering … (relative effectiveness)” value (narcotized rats)?
Its value is 0.85.

And the EC50 (human thrombocytes; [3])?
The EC50 was 0.58 µg/mL (≈ 1.71 µM).

What about the “Inhibition … (relative effectiveness)” value (human thrombocytes; human thrombocytes, in vitro) of the same molecule?
The value was 852.

Which ED20 (narcotized rats) does the source give for `CC1CC(=O)NN=C1c1ccc(NC(=O)C(C)(C)Br)cc1` (stereo not shown) [Example 17] here?
The ED20 was 2.93 mg/kg.

What about the “anti-hypertensive effect (in words)” value (narcotized rats) of the same molecule?
The value was “slight”.

What about the “Lowering … (relative effectiveness)” value (narcotized rats) of the same molecule?
The value was 0.12.

And the EC50 (human thrombocytes; [3])?
Its EC50 is 0.89 µg/mL (≈ 2.53 µM).

And the “Inhibition … (relative effectiveness)” value (human thrombocytes; human thrombocytes, in vitro)?
Its value is 555.
